We go through 67 compounds from the RepoRT retention time repository.

Each structure is given as a SMILES string.

The series is described as follows: RP, Waters ACQUITY UPLC BEH C18, 50 × 2.1 mm, 1.7 µm, 40 °C, 0.6 mL/min, estimated dead time 0.18 min; A: water + 0.1% formic acid, pH 3; B: acetonitrile + 0.1% formic acid, pH 3; gradient (min/%B) 0/5 7/100 8/100. Particulars: stereoisomer not certain.

Take `Oc1ccc(C2Oc3cc(O)cc4c3C2c2cc(O)cc(O)c2C(c2ccc(O)cc2)C2c3cc(O)cc(O)c3C(c3ccc(O)cc3)C42)cc1` (configuration not stated): the LC retention time was 2.23 min.

As for `CCC(O)c1cc(=O)oc2c(C(=O)CC(C)C)c(O)c(CC=C(C)C)c(O)c12` (configuration not stated), the LC retention time is 5.49 min.

Regarding `C=C1C(=O)C23C(O)CC4C(C)(C)CCCC4(CO)C2C(O)CC1C3O` (configuration not stated), the LC retention time was 1.85 min.

In the case of `C/C=C(/C)C(=O)OC1CCC2CC3(O)OC(=O)C(C)=C3CC2(C)C1C` (configuration not stated), the LC retention time was 4.16 min.

Take `COc1cc2ccc(=O)oc2cc1OC` [6,7-dimethoxy-2H-chromen-2-one]: the LC retention time was 1.87 min.

As to `C[C@H](C/C=C/C(C)(C)O)[C@H]1CC[C@@]2(C)C3C(=O)C=C4C(CCC(O)C4(C)C)[C@]3(C)CC[C@]12C` (some centres not stated), the LC retention time is 4.37 min.

For the compound `COc1cc2c(cc1O)CC1NCCc3cc(O)c(OC)c-2c31` (configuration not stated), the LC retention time was 1.11 min.

Consider `COc1c(O)cc2c3c1C1(C=CC(=O)C=C1)CC3N(C)CC2` (configuration not stated), for which the LC retention time is 0.738 min.

With `COc1cc2c(cc1O)C(Cc1ccc(O)cc1)NCC2` (configuration not stated), the LC retention time is 1.05 min.

In the case of `CC1=C2CC3(C)C(C)CCCC3CC2(O)OC1=O` (configuration not stated), the LC retention time is 3.6 min.

Regarding `CC1CC2CC(=O)C3CCCN4CCCC2C34C1` (configuration not stated), the LC retention time is 1.06 min.

Regarding `COC(=O)C1=COC(OC2OC(CO)C(O)C(O)C2O)C2C(O)CN3CCc4c([nH]c5ccccc45)[C@@H]3CC12` (some centres not stated), the LC retention time was 1.29 min.

Regarding `COc1cc(/C=C/C(=O)OCC(Cc2ccc(O)c(OC)c2)C(COC(C)=O)Cc2ccc(O)c(OC)c2)ccc1O` (configuration not stated), the LC retention time was 2.3 min.

For `CC[C@H]1C[C@@H]2CN3CCc4c([nH]c5ccccc45)[C@](C(=O)OC)(C2)[C@H]13`, the LC retention time is 2.05 min.

Take `CC(=O)OCC1=C2C(OC(=O)/C=C(/C)COC(C)=O)CC(C)C(=O)CC(=O)C3(C)OC3C2OC1=O` (configuration not stated): the LC retention time was 3.5 min.

On to `C=C1CCC2(OC1)OC1CC3C4C(O)C(=O)C5(O)C(O)C(O)C(O)C(O)C5(C)C4CCC3(C)C1C2C` (configuration not stated), for which the LC retention time was 3.04 min.

With `COc1cc(O)c2c(c1)C(=O)c1cc(C)cc(O)c1C2=O`, the LC retention time is 4.7 min.

Consider `C=C1CCC(C(C)C)=CC2C1CCC2(C)O` (configuration not stated), for which the LC retention time is 3.02 min.

As for `CCC1C2CCCCN3CCC(C4C(C)C(=O)OC14)C23` (configuration not stated), the LC retention time is 1.34 min.

With `C=C1CC23CCC4C(C)(C(=O)O)CCCC4(C)C2CCC1C3` (configuration not stated), the LC retention time is 5.69 min.

For `C=C(C(=O)C(OC(C)=O)C(C)C1C(OC(C)=O)CC2(C)C3CCC4C(C)C(=O)C=CC45CC35CCC12C)C(C)C` (configuration not stated), the LC retention time was 5.46 min.

On to `COC(=O)C1=CC(O)C23OOC1CC2(C)CCC3C(C)C` (configuration not stated), for which the LC retention time was 3.72 min.

Take `COc1c(-c2c(C)cc(OC)c3c(OC)cccc23)c(O)cc2c1C(C)NC(C)C2` (configuration not stated): the LC retention time is 2.1 min.

Regarding `CC(=O)OC(CCc1ccccc1)Cc1cc(=O)c2c(o1)OC1(C)CCC(C(C)C)C2C1` (configuration not stated), the LC retention time was 4.97 min.

On to `COc1cc2c(cc1O)CC1NCCc3cc(OC)c(OC)c-2c31` (configuration not stated), for which the LC retention time is 1.58 min.

In the case of `CC(=O)OC1CC(O)C23COC(O)C1(C)C2CC(O)C1(C)C3=C(O)C(=O)C2(C)C(c3ccoc3)CC3OC312` (configuration not stated), the LC retention time was 2.39 min.

For `C/C(=C\C1CC(C2CCC34CC23C=CC2C3(C)CC=C5CC(c6ccccc6)OCC5(C)C3CC(O)C24C)C(=O)O1)CO` (configuration not stated), the LC retention time is 5.22 min.

Turning to `C[C@@H]1CC2(NCCS2)[C@]2(O)OC3C[C@@]4(C=O)C(CCC5C4CC[C@]4(C)C(C6=CC(=O)OC6)CC[C@]54O)CC3OC2O1` (some centres not stated), the LC retention time was 0.611 min.

In the case of `CC[C@]12C=CCN3CC[C@]4(C(=C(C(=O)OC)C1)Nc1ccccc14)C32` (some centres not stated), the LC retention time is 2.17 min.

With `C[C@@H]1CC2(N=CCS2)[C@]2(O)OC3C[C@@]4(C=O)C(CCC5C4CC[C@]4(C)C(C6=CC(=O)OC6)CC[C@]54O)CC3OC2O1` (some centres not stated), the LC retention time was 0.662 min.

As to `C=CCc1ccc(O)c(-c2ccc(O)c(CC=C)c2)c1` [3',5-bis(prop-2-en-1-yl)-[1,1'-biphenyl]-2,4'-diol], the LC retention time is 3.18 min.

`C=CC12CN(C)C3C4COC(C[C@@H]41)[C@]1(C(=O)Nc4ccccc41)C32` (some centres not stated): the LC retention time was 1.01 min.

For the compound `C=C1[C@@H](O)C[C@@H]2[C@](C)(CCC[C@@]2(C)C(=O)O)[C@H]1CC1C(C)=CCC2C(=O)C(OC)=CC(=O)C21c1cc(=O)c2c(O)cc(O)cc2o1` (some centres not stated), the LC retention time is 2.95 min.

Turning to `C=C(C(=O)CC(C)C1CCC2(C)C3CCC4C(C)(C(=O)OC5OC(C)C(O)C(O)C5O)C(O)CCC45CC35CCC12C)C(C)C` (configuration not stated), the LC retention time is 5.23 min.

For `CC(C)=CCc1c(O)cc2oc(-c3ccc(O)cc3)c(O)c(=O)c2c1O`, the LC retention time is 3.98 min.

Turning to `CCN1CC2(COC(=O)c3ccccc3NC(=O)C(C)CC(=O)O)CCC(OC)C34C5CC6C(OC)CC(O)(C5C6OC)C(O)(C(OC)C23)C14` (configuration not stated), the LC retention time is 2.37 min.

Take `COC1C2(O)COC3=CC(=O)C=CC31c1cc(O)c(O)cc1C2` (configuration not stated): the LC retention time is 1.08 min.

Regarding `COc1cc(C=O)c([N+](=O)[O-])cc1OC` [4,5-dimethoxy-2-nitrobenzaldehyde], the LC retention time is 0.304 min.

For `CC(CC[C@@H](C)[C@H]1CCC2C3C[C@H](OS(=O)(=O)O)[C@H]4C[C@H](OS(=O)(=O)O)C(OS(=O)(=O)O)C[C@]4(C)C3CC[C@@]21C)C(C)(C)C` (some centres not stated), the LC retention time is 1.41 min.

For the compound `COc1cc2c3c(c1OC)Oc1ccc(cc1)CC1c4c(cc(OC)c(OC)c4Oc4ccc(cc4)CC3N(C)CC2)CCN1C` (configuration not stated), the LC retention time is 1.79 min.

Regarding `CCCCCCCCCCCCO[C@@H]1O[C@@H](C)[C@H](O[C@@H]2O[C@@H](C)[C@H](OC(C)=O)[C@@H](O[C@@H]3O[C@@H](C)[C@H](OC(C)=O)[C@@H](O[C@@H]4O[C@@H](C)[C@H](OC(C)=O)[C@@H](OC(C)=O)[C@H]4O)[C@H]3OC(C)=O)[C@H]2O)[C@@H](O)[C@H]1O`, the LC retention time is 6.09 min.

In the case of `CC(C)=CCC1CC2(CC=C(C)C)C(O)=C(C(=O)CC(C)C)C(=O)OC2=C(C(CC(=O)O)c2ccccc2)C1(C)C` (configuration not stated), the LC retention time is 6.29 min.

As to `O=C1c2ccc(O)cc2OC(c2ccc(O)cc2)C1C1C(=O)c2ccc(O)cc2OC1c1ccc(O)cc1` (configuration not stated), the LC retention time is 2.67 min.

As to `CC[C@@H]1CN(C)C[C@@]2(C(=O)OC)Cc3c([nH]c4ccccc34)C(=O)C[C@@H]12`, the LC retention time is 1.76 min.

For the compound `CCC(O)C(/C=C1\C(=O)C=CC1(O)CCCCCCCC(=O)OC)OC(C)=O` (configuration not stated), the LC retention time is 3.08 min.

Regarding `CC(=O)OC(C)(C)/C=C/C(=O)[C@](C)(O)[C@H]1[C@H](O)C[C@@]2(C)[C@@H]3CC=C4C(C=C(O)C(=O)C4(C)C)[C@]3(C)C(=O)C[C@]12C` (some centres not stated), the LC retention time was 3.63 min.

For the compound `C/C=C1/CN(C)[C@@H]2Cc3c([nH]c4ccccc34)C(=O)C[C@H]1C2C(=O)OC` (some centres not stated), the LC retention time was 1.4 min.

For `CCCCCCCCCCCCCC(=O)OC12CC(C)C3(O)C(C4OC4(CO)C(O)C4(O)C(=O)C(C)=CC43)C1C2(C)C` (configuration not stated), the LC retention time was 6.55 min.

On to `COc1cc(O)ccc1CCC(c1ccc(O)cc1)c1cc(CCC(=O)c2ccc(O)cc2)c(O)cc1O` (configuration not stated), for which the LC retention time was 2.1 min.

As for `CC12CCCc3coc(c31)C(=O)c1cc3c(cc12)C(=O)C=CC3=O` (configuration not stated), the LC retention time was 2.6 min.

For the compound `C=C1[C@@H](O)C[C@H]2C(C)(C)CCC[C@]2(C)[C@H]1CC1C(C)=CCC2C(=O)C(OC)=CC(=O)C21c1cc(=O)c2c(O)cc(O)cc2o1` (some centres not stated), the LC retention time was 2.12 min.

Consider `COc1cc2c(cc1O)C(Cc1ccc(OC3=CC4(C=CC3=O)CC3c5c(cc(OC)c(OC)c54)CCN3C)cc1)N(C)CC2` (configuration not stated), for which the LC retention time was 1.59 min.

Take `C=C(C(=O)C(O)C(C)C1C(OC(C)=O)CC2(C)C3CCC4C(C)C(=O)C=CC45CC35CCC12C)C(C)C` (configuration not stated): the LC retention time is 5.56 min.

`COc1ccc2c(c1)CC1c3c(cc4c(c3-2)OCO4)CCN1C` (configuration not stated): the LC retention time was 2.15 min.

Take `COC(=O)C1=C2CCC3=C2C2(C1)C1(C)CCC4C(C)CN(CC1CC3)C42O` (configuration not stated): the LC retention time was 2.17 min.

`COc1cc2c(cc1OC)-c1c(OC)c(OC)cc3c1C(C2)N(C)CC3` (configuration not stated): the LC retention time was 1.87 min.

As for `C/C(=C/CC[C@H](C)[C@@H]1CC[C@]2(C)C3=CCC4C(C)(C)C(=O)CC[C@]4(C)C3CC[C@@]12C)C(=O)O` (some centres not stated), the LC retention time was 6.25 min.

As to `COc1cc(/C=C/C(=O)OC2CC3(C)CCC2C3(C)C)ccc1O` (configuration not stated), the LC retention time is 4.97 min.

For the compound `COc1ccc2c3c(c4cc(OC)c(OC)cc4c2c1)CC1CCCN1C3` (configuration not stated), the LC retention time is 2.27 min.

In the case of `COc1cc(CC(CO)C(CO)Cc2ccc(O)c(OC)c2)ccc1O` (configuration not stated) [2,3-bis[(4-hydroxy-3-methoxyphenyl)methyl]butane-1,4-diol], the LC retention time is 0.28 min.

In the case of `COc1cc2c3cc1Oc1c(cccc1OC)CC1c4c(cc(OC)c(OC)c4Oc4cccc(c4)CC3N(C)CC2)CCN1C` (configuration not stated), the LC retention time is 1.7 min.

For `C/C=C1/C2C=C(C)CC1(N)c1ccc(=O)[nH]c1C2` (configuration not stated), the LC retention time was 0.913 min.

With `C[C@@H]1CC2(N=CCS2)[C@]2(O)OC3C[C@@]4(C=O)C(CCC5C4CC[C@]4(C)C(C6=CC(=O)OC6)CC(O)[C@]54O)CC3OC2O1` (some centres not stated), the LC retention time was 0.41 min.

`C/C(=C\CC/C=C(\C)CC/C=C(\C)CCC(O)C(C)(O)CO)CC/C=C(\C)CCC(O)C(C)(C)O` (configuration not stated): the LC retention time was 4.79 min.

In the case of `CCCCCCCCCCCCO[C@@H]1O[C@@H](C)[C@H](OC(C)=O)[C@@H](O[C@@H]2O[C@@H](C)[C@H](OC(C)=O)[C@@H](O[C@@H]3O[C@@H](C)[C@H](OC(C)=O)[C@@H](O)[C@H]3O)[C@H]2OC(C)=O)[C@H]1O`, the LC retention time was 6.32 min.

With `C=C(C(=O)C(OC(C)=O)C(C)C1C(OC(C)=O)CC2(C)C3CCC4C(C)C(=O)C=CC45CC35CCC12C)C(C)CO` (configuration not stated), the LC retention time was 4.41 min.

As to `O=C1CC(c2ccc(O)cc2)Oc2cc3c(c(O)c21)C(C(=O)c1ccc(O)cc1O)C(c1ccc(O)cc1)O3` (configuration not stated), the LC retention time was 2.78 min.
